Laboratory results reported in PMC11530689, “Anti colorectal cancer activity and in silico studies of novel pyridine nortopsentin analog as cyclin dependent kinase 6 inhibitor” (Scientific Reports, 2024).

How the values were obtained:
[1] = tested on: HCT-116 cells; assay: MTT assay, IC50 determination; assay type: cell-based; settings: Homo sapiens, colorectal cancer HCT-116 cells, 48 h
Method: HCT-116 (colon cancer cell line) was obtained from the American Type Culture Collection (ATCC). The cancer cell line was grown in Dulbecco’s Modified Eagle’s Medium (DMEM) supplemented with 10% fetal bovine serum (FBS), penicillin/streptomycin (100 U/mL and 100 μg/mL, respectively) and 2 mM L-glutamine. The cells were maintained at 37 °C in 5% CO2.
(§1) The cytotoxic activity of nortopsintin analogs (4a–4j) was determined by the national cancer institute (NCI, Bethesda, Maryland, USA) against 60 different cancer cell lines at a single concentration of (10^−5 M). For the determination of IC50 value, we used MTT assay kit (Sigma) according to the manufacturer’s protocol. HCT-116 cells were seeded into a 96-well plate at a concentration of 20,000 cells/well. After 24 h, the media was aspirated and replaced with serum-free media containing serial dilutions of the 4i compound. The cells were treated for 48 h in triplicates. […] The percentage of cytotoxicity was calculated using the following equation: % Cytotoxicity = [1 − (AVx/AVNC)] × 100.
Where, AVx denotes the average absorbance of the sample and AVNC denotes the average absorbance of the negative control. The absorbance was measured at 570 nm with reference at 690 nm.

[2] = tested on: HCT-116; assay: NCI 60 cell line screen; assay type: cell-based, human; settings: HCT-116, Colon Cancer; single concentration 10^−5 M
Method: as §1, with “(4a-4j)” for “(4a–4j)”, “(10^-5” for “(10^−5”, “manufacturer's” for “manufacturer’s”, “compound.” for “compound. The cells were treated for 48 h in triplicates.”, “- ([…])]” for “− (AVx/AVNC)]”

[3] = tested on: NCI-H322M; assay: NCI 60 cell line screen; assay type: cell-based; settings: Non-Small Cell Lung Cancer, single concentration 10^−5 M
How it was run: (§2)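 Data come from the NCI panel of 60 cancer cell lines, each treated once at 10^-5 M; the recorded value is cytotoxic activity.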

[4] = tested on: HOP-92; assay: NCI 60 cell line screen; assay type: cell-based; settings: HOP-92, Non-Small Cell Lung Cancer; single concentration 10^−5 M
How it was run: as §2

[5] = tested on: UACC-257; assay: NCI 60 cell line screen; assay type: cell-based; settings: UACC-257, Melanoma; single concentration 10^−5 M
How it was run: as §2

[6] = tested on: SF-539; assay: NCI 60 cell line screen; assay type: cell-based; settings: SF-539, CNS Cancer; single concentration 10^−5 M
How it was run: as §2

[7] = tested on: MDA-MB-435; assay: NCI 60 cell line screen; assay type: cell-based; settings: MDA-MB-435, Melanoma; single concentration 10^−5 M
How it was run: as §2

[8] = tested on: BT-549; assay: NCI 60 cell line screen; assay type: cell-based; settings: BT-549, Breast Cancer; single concentration 10^−5 M
How it was run: as §2

[9] = tested on: HOP-62; assay: NCI 60 cell line screen; assay type: cell-based; settings: HOP-62, Non-Small Cell Lung Cancer; single concentration 10^−5 M
How it was run: as §2

[10] = tested on: HS 578T; assay: NCI 60 cell line screen; assay type: cell-based; settings: Breast Cancer, single concentration 10^−5 M
How it was run: as §2

[11] = tested on: SNB-75; assay: NCI 60 cell line screen; assay type: cell-based; settings: SNB-75, CNS Cancer; single concentration 10^−5 M
How it was run: as §2

[12] = tested on: HT29; assay: NCI 60 cell line screen; assay type: cell-based; settings: HT29, Colon Cancer; single concentration 10^−5 M
How it was run: as §2

[13] = tested on: HCT-15; assay: NCI 60 cell line screen; assay type: cell-based; settings: HCT-15, Colon Cancer; single concentration 10^−5 M
How it was run: as §2

[14] = tested on: M14; assay: NCI 60 cell line screen; assay type: cell-based; settings: M14, Melanoma; single concentration 10^−5 M
How it was run: as §2

[15] = tested on: EKVX; assay: NCI 60 cell line screen; assay type: cell-based; settings: Non-Small Cell Lung Cancer, single concentration 10^−5 M
How it was run: as §2

[16] = tested on: MOLT-4; assay: NCI 60 cell line screen; assay type: cell-based; settings: MOLT-4, Leukemia; single concentration 10^−5 M
How it was run: as §2

[17] = tested on: OVCAR-5; assay: NCI 60 cell line screen; assay type: cell-based; settings: OVCAR-5, Ovarian Cancer; single concentration 10^−5 M
How it was run: as §2

[18] = tested on: LOX IMVI; assay: NCI 60 cell line screen; assay type: cell-based; settings: Melanoma, single concentration 10^−5 M
How it was run: as §2

[19] = tested on: HL-60 (TB); assay: NCI 60 cell line screen; assay type: cell-based; settings: Leukemia, single concentration 10^−5 M
How it was run: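 Cytotoxicity was determined at 10^-5 M in the NCI sixty-cell-line program; each line received that single concentration.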

[20] = tested on: IGROV1; assay: NCI 60 cell line screen; assay type: cell-based; settings: IGROV1, Ovarian Cancer; single concentration 10^−5 M
How it was run: as §2

[21] = tested on: SK-MEL-28; assay: NCI 60 cell line screen; assay type: cell-based; settings: SK-MEL-28, Melanoma; single concentration 10^−5 M
How it was run: as §2

[22] = tested on: SN12C; assay: NCI 60 cell line screen; assay type: cell-based; settings: Renal Cancer, single concentration 10^−5 M
How it was run: as §2

[23] = tested on: UO-31; assay: NCI 60 cell line screen; assay type: cell-based; settings: UO-31, Renal Cancer; single concentration 10^−5 M
How it was run: as §2

[24] = tested on: NCI-H460; assay: NCI 60 cell line screen; assay type: cell-based; settings: NCI-H460, Non-Small Cell Lung Cancer; single concentration 10^−5 M
How it was run: as §2

Compound	Growth % [2] [%]	Growth % [3] [%]	Growth % [4] [%]	Growth % [5] [%]	Growth % [6] [%]	Growth % [7] [%]	Growth % [8] [%]	Growth % [9] [%]	Growth % [10] [%]	Growth % [11] [%]	Growth % [12] [%]	Growth % [13] [%]	Growth % [14] [%]	Growth % [15] [%]	Growth % [16] [%]	Growth % [17] [%]	Growth % [18] [%]	Growth % [19] [%]	Growth % [20] [%]	Growth % [21] [%]	further results
CN(C)c1ccc(-c2cc(-c3c[nH]c4ccccc34)nc(-c3c[nH]c4ccccc34)c2C#N)cc1 [4i]	57.78	92.92	104.62	101.12	75.80	81.62	103.60	82.30	104.13	86.73	63.02	44.65	97.66	93.75	98.39	102.79	70.02	85.35	74.28	101.89	IC50 [1]: 28.8 nM; Growth % [22]: 92.07%; Growth % [23]: 72.88%; Growth % [24]: 60.31%
N#Cc1c(-c2ccc(O)cc2)cc(-c2c[nH]c3ccccc23)nc1-c1c[nH]c2ccccc12 [4j]	105.38	101.04	125.42	108.53	66.62	90.35	96.81	94.38	89.18	90.85	111.48	57.19	100.26	100.08	87.60	108.44	62.75	107.76	76.43	76.45	Growth % [22]: 95.63%; Growth % [23]: 78.37%; Growth % [24]: 103.74%
